Measurements taken from US10563244B2, “Nanopatterned extracellular matrices enable cell-based assays with a mass spectrometric readout” (NORTHWESTERN UNIVERSITY, priority 2016, dated 2020).

System: cellular phosphatases (phosphotyrosine phosphatases) in HeLa cells
Assay: TCAL-SAMDI cell-based phosphatase activity assay (HeLa cells on fibronectin nanoarrays, lysis, SAMDI-MS readout)
Protocol: Cell-Based Assay for Enzyme Activity. HeLa cells were obtained from ATCC and cultured in DMEM medium supplemented with fetal bovine serum, glutamine, penicillin and streptomycin. All cells were cultured in a humidified incubator at 37° C. and 5% CO2. Cells were trypsinized and suspended in media, and the average number of cells per μL was estimated using a hemocytometer to seed the desired number of cells per spot. The volume of media per spot was 3 μL for all experiments. Cells were cultured on the monolayers presenting fibronectin and the phosphatase peptide substrate on glass slides for 2 hours under standard growth conditions. Lysis buffer (1 μL) was delivered manually to each spot and the lysate was allowed to react with the monolayer for 1 hour at 37° C. in a humidity chamber. […] A solution of 2,4,6-trihydroxyacetopehenone (THAP) in acetone (30 mg/mL) was delivered to each spot on the array and the surfaces were analyzed using an Applied Biosystems 5800 MALDI TOF/TOF instrument with a 20 kV accelerating voltage in positive reflector mode. […]
HeLa cells were seeded on the fibronectin nanopatterned surfaces and cultured the cells for two hours under standard media conditions (FIG. 4A). […] The mixed monolayer was rinsed with PBS buffer and then treated with 2,4,6-trihydroxyacetophenone (THAP) matrix (30 mg/mL in acetone) and analyzed with SAMDI-MS. […]

Compound: O=C(CBr)c1ccc(O)cc1 [PTPI-I, PTP Inhibitor I]
- decrease in phosphatase activity (HeLa cells, 300 μM added to cell cultures, two hour culture period, then lysis and SAMDI-MS): 92%
- phosphatase activity after addition of inhibitor (SAMDI spectra, FIG. 4C) (figure legend says inhibitor added to the lysis buffer, HeLa cells on patterned monolayers): loss of phosphatase activity
